Experimental data taken from patent publication US20250388605A1, “HETEROBIFUNCTIONAL COMPOUNDS AND METHODS OF TREATING DISEASE” (Halda Therapeutics OpCo, Inc., priority 2022, published 2025).

What was measured:
[1] = test system: T-Rex 293 cell line SC3 cells having increased expression of androgen receptor protein due to exposure to doxycycline; experiment: Cellular growth inhibition, T-Rex 293 SC3 cells with doxycycline (increased androgen receptor expression), CellTiter-Glo; type: cell-based; conditions: T-Rex 293 SC3 cells with 10 ng/mL doxycycline (increased androgen receptor expression), 72 hours, CellTiter-Glo 2.0
Description: (§1) The following types of cells were prepared for this experiment: (i) a T-Rex 293 cell line having increased expression of androgen receptor protein due to exposure to doxycycline and (ii) a T-Rex 293 cell line lacking increased expression of androgen receptor protein. Ability of the test compounds to inhibit proliferation of the foregoing cell types was evaluated according to the procedures set forth below.
(§2) The doxycycline-inducible androgen receptor protein expressing cell line was established using the following protocol: T-Rex 293 cells were purchased from Invitrogen (Cat #R71007) and transfected using Lipofectamine 2000 with the wild-type androgen receptor protein sequence cloned into the pcDNA4/TO vector. Transfected cells were selected using 400 μg/mL Zeocin (Invitrogen Cat #R25001). Following selection, single clones were raised and maintained in Dulbecco's Modified Eagle Medium (DMEM) supplemented with 10% w/w Tetracycline-free fetal bovine serum (FBS) and 250 μg/mL Zeocin. Clones were analyzed for expression of androgen receptor protein in the presence and absence of 10 ng/mL doxycycline (Sigma Cat #D9891), and a single doxycycline-inducible clone (hereinafter “SC3”) was selected for use in downstream assays.
(§3) The SC3 cells were seeded on poly-D-lysine coated, black clear-bottom 384-well plates at 2500/well, in 25 μL Phenol Red Free Dulbecco's Modified Eagle Medium (DMEM) supplemented with 10% w/w charcoal-dextran treated fetal bovine serum (FBS) and 1% w/w pen-strep, with or without 10 ng/mL doxycycline. Pen-Strep is a commercially available mixture of penicillin G and streptomycin, which is used in mammalian cell culture media to prevent bacterial contamination. Phenol Red Free Dulbecco's Modified Eagle Medium (DMEM) supplemented with 10% w/w charcoal-dextran treated fetal bovine serum (FBS) and 1% w/w pen-strep, with or without 10 ng/mL doxycycline is herein referred to as Treatment Medium. Following seeding of cells in the plates, the plates were spun at 300×g for 30 seconds, then equilibrated to room temperature for 30 minutes, and then deposited in a humidified tissue culture incubator maintained at 37° C. with 5% CO2.
(§4) At 24 hours after seeding of the cells, dilutions of test compound were prepared in DMSO and dissolved in Treatment Medium, to achieve a final DMSO concentration of 0.5% w/w, thereby providing the Test Compound Solution. A 25 μL aliquot of the Test Compound Solution was added to cells in the well plates. An equal volume of a solution containing DMSO and Treatment Medium was used as a negative control. Following treatment of cells with Test Compound Solution or said equal volume of a solution containing DMSO and Treatment Medium, the plates were spun at 300×g for 30 seconds, and then left in an incubator for 72 hours.
(§5) At the end of the treatment duration, cell viability was quantified with CellTiter-Glo 2.0 reagent (Promega Cat #G9243). For this purpose, plates were equilibrated to room temperature for 30 minutes, and then 25 μL of CellTiter-Glo 2.0 reagent was added to cells in the plate wells. Plates were then agitated on a shaker for two minutes at 500 rpm and subsequently incubated at room temperature for 10 minutes. Following incubation, the plates were spun at 3000×g for 30 seconds, then sealed with an optical adhesive cover, and luminescence readings were measured with an EnVision Plate Reader.
(§6) Data was normalized using zero luminescence for baseline. A four-parameter non-linear regression curve fit was applied to dose-response data in GraphPad Prism data analysis software to determine the half-maximal growth inhibitory concentration (GI50) for each test compound.

[2] = test system: T-Rex 293 cell line SC3 cells lacking increased expression of androgen receptor protein; experiment: Cellular growth inhibition, T-Rex 293 SC3 cells without doxycycline (no increased androgen receptor expression), CellTiter-Glo; type: cell-based; conditions: T-Rex 293 SC3 cells not exposed to doxycycline (no increased androgen receptor expression), 72 hours
Description: as §1, §2, §3, §4, §5, §6

VCaP cells = experiment: Cellular growth inhibition assay for VCaP cells, CellTiter-Glo; type: cell-based, human; conditions: Homo sapiens, 72 hours
Description: VCaP cells were purchased from American Type Cell Culture (ATCC Cat #CRL2876) and then seeded on poly-D-lysine coated, black clear-bottom 384-well plates at 5000/well in 25 μL Dulbecco's Modified Eagle Medium (DMEM) supplemented with 10% w/w Fetal bovine serum (FBS) and 1% w/w Pen-Strep. Pen-Strep is a commercially available mixture of penicillin G and streptomycin, which is used in mammalian cell culture media to prevent bacterial contamination. Dulbecco's Modified Eagle Medium (DMEM) supplemented with 10% w/w fetal bovine serum (FBS) and 1% w/w Pen-Strep is herein referred to as Treatment Medium. Following seeding of cells in the plates, the plates were spun at 300×g for 30 seconds, then equilibrated to room temperature for 30 minutes, and then deposited in a humidified tissue culture incubator maintained at 37° C. with 5% CO2.
as §4, §5, §6

Question: What does the source list for `CCS(=O)(=O)Nc1ccc(Oc2cccc(OCCOCCOCCN(C)c3ncc(C(=O)N[C@H]4C(C)(C)[C@H](Oc5ccc(C#N)c(Cl)c5)C4(C)C)cn3)c2)c(-c2cn(C)c(=O)c3[nH]ccc23)c1` [Compound I-2]?
Answer: GI50 [1]: < 0.5 µM; GI50 [2]: 1.5 to 3 µM

Question: With `CCS(=O)(=O)Nc1ccc(Oc2cccc(OCCOCCOCCOCCOCCOCCOCCN(C)c3ncc(C(=O)N[C@H]4C(C)(C)[C@H](Oc5ccc(C#N)c(Cl)c5)C4(C)C)cn3)c2)c(-c2cn(C)c(=O)c3[nH]ccc23)c1` [Compound I-4] as the compound, how does the GI50 [1] read?
Answer: < 0.5 µM

Question: And the GI50 [2]?
Answer: < 0.5 µM

Question: Which GI50 [1] does the source give for `CCS(=O)(=O)Nc1ccc(Oc2cccc(OCCCOCCCOC3CCN(c4ncc(C(=O)N[C@H]5C(C)(C)[C@H](Oc6ccc(C#N)c(Cl)c6)C5(C)C)cn4)CC3)c2)c(-c2cn(C)c(=O)c3[nH]ccc23)c1` [Compound I-12] here?
Answer: < 0.5 µM

Question: And the GI50 (VCaP cells)?
Answer: < 0.5 µM

Question: What about the GI50 [2] of the same compound?
Answer: < 0.5 µM

Question: Which results are given for `CCS(=O)(=O)Nc1ccc(Oc2cccc(OCCCOCCOC3CCN(c4ncc(C(=O)N[C@H]5C(C)(C)[C@H](Oc6ccc(C#N)c(Cl)c6)C5(C)C)cn4)CC3)c2)c(-c2cn(C)c(=O)c3[nH]ccc23)c1` [Compound I-14]?
Answer: GI50 [1]: < 0.5 µM; GI50 (VCaP cells): < 0.5 µM; GI50 [2]: 0.5 to 1.5 µM

Question: What does the source list for `CCS(=O)(=O)Nc1ccc(Oc2cccc(OCCCCOC3CCN(c4ncc(C(=O)N[C@H]5C(C)(C)[C@H](Oc6ccc(C#N)c(Cl)c6)C5(C)C)cn4)CC3)c2)c(-c2cn(C)c(=O)c3[nH]ccc23)c1` [Compound I-15]?
Answer: GI50 [1]: < 0.5 µM; GI50 (VCaP cells): < 0.5 µM; GI50 [2]: 0.5 to 1.5 µM

Question: What does the source list for `CCS(=O)(=O)Nc1ccc(Oc2cccc(OCCOCCCOC3CCN(c4ncc(C(=O)N[C@H]5C(C)(C)[C@H](Oc6ccc(C#N)c(Cl)c6)C5(C)C)cn4)CC3)c2)c(-c2cn(C)c(=O)c3[nH]ccc23)c1` [Compound I-16]?
Answer: GI50 [1]: < 0.5 µM; GI50 (VCaP cells): < 0.5 µM; GI50 [2]: < 0.5 µM

Question: With `CCS(=O)(=O)Nc1ccc(Oc2cccc(OCCCOC3CCN(c4ncc(C(=O)N[C@H]5C(C)(C)[C@H](Oc6ccc(C#N)c(Cl)c6)C5(C)C)cn4)CC3)c2)c(-c2cn(C)c(=O)c3[nH]ccc23)c1` [Compound I-17] as the compound, how does the GI50 [1] read?
Answer: < 0.5 µM

Question: And the GI50 (VCaP cells)?
Answer: < 0.5 µM

Question: And the GI50 [2]?
Answer: < 0.5 µM

Question: For `CCS(=O)(=O)Nc1ccc(Oc2cccc(CCCOC3CCN(c4ncc(C(=O)N[C@H]5C(C)(C)[C@H](Oc6ccc(C#N)c(Cl)c6)C5(C)C)cn4)CC3)c2)c(-c2cn(C)c(=O)c3[nH]ccc23)c1` [Compound I-20], which GI50 [1] is on record?
Answer: < 0.5 µM

Question: What about the GI50 (VCaP cells) of the same compound?
Answer: < 0.5 µM

Question: And the GI50 [2]?
Answer: < 0.5 µM

Question: With `CCS(=O)(=O)Nc1ccc(Oc2cccc(CCCCCOC3CCN(c4ncc(C(=O)N[C@H]5C(C)(C)[C@H](Oc6ccc(C#N)c(Cl)c6)C5(C)C)cn4)CC3)c2)c(-c2cn(C)c(=O)c3[nH]ccc23)c1` [Compound I-22] as the compound, how does the GI50 [1] read?
Answer: < 0.5 µM

Question: What about the GI50 (VCaP cells) of the same compound?
Answer: < 0.5 µM

Question: And the GI50 [2]?
Answer: < 0.5 µM

Question: For `CCS(=O)(=O)Nc1ccc(Oc2cccc(OCCC3CCN(c4ncc(C(=O)N[C@H]5C(C)(C)[C@H](Oc6ccc(C#N)c(Cl)c6)C5(C)C)cn4)CC3)c2)c(-c2cn(C)c(=O)c3[nH]ccc23)c1` [Compound I-26], which GI50 [1] is on record?
Answer: < 0.5 µM

Question: What about the GI50 (VCaP cells) of the same compound?
Answer: < 0.5 µM

Question: What about the GI50 [2] of the same compound?
Answer: < 0.5 µM

Question: Which GI50 [1] does the source give for `CCS(=O)(=O)Nc1ccc(Oc2cccc(OCCCCC3CCN(c4ncc(C(=O)N[C@H]5C(C)(C)[C@H](Oc6ccc(C#N)c(Cl)c6)C5(C)C)cn4)CC3)c2)c(-c2cn(C)c(=O)c3[nH]ccc23)c1` [Compound I-28] here?
Answer: < 0.5 µM

Question: And the GI50 (VCaP cells)?
Answer: < 0.5 µM

Question: And the GI50 [2]?
Answer: 0.5 to 1.5 µM

Question: For `CCS(=O)(=O)Nc1ccc(Oc2cccc(OCCN3CCN(CC4CCN(c5ncc(C(=O)N[C@H]6C(C)(C)[C@H](Oc7ccc(C#N)c(Cl)c7)C6(C)C)cn5)CC4)CC3)c2)c(-c2cn(C)c(=O)c3[nH]ccc23)c1` [Compound I-32], which GI50 [1] is on record?
Answer: < 0.5 µM

Question: What about the GI50 (VCaP cells) of the same compound?
Answer: < 0.5 µM

Question: And the GI50 [2]?
Answer: < 0.5 µM

Question: Which GI50 [1] does the source give for `CCS(=O)(=O)Nc1ccc(Oc2cccc(OCCCN3CCN(CC4CCN(c5ncc(C(=O)N[C@H]6C(C)(C)[C@H](Oc7ccc(C#N)c(Cl)c7)C6(C)C)cn5)CC4)CC3)c2)c(-c2cn(C)c(=O)c3[nH]ccc23)c1` [Compound I-33] here?
Answer: < 0.5 µM

Question: What about the GI50 (VCaP cells) of the same compound?
Answer: < 0.5 µM

Question: What about the GI50 [2] of the same compound?
Answer: < 0.5 µM

Question: Which results are given for `CCS(=O)(=O)Nc1ccc(Oc2cccc(OCCCCN3CCN(CC4CCN(c5ncc(C(=O)N[C@H]6C(C)(C)[C@H](Oc7ccc(C#N)c(Cl)c7)C6(C)C)cn5)CC4)CC3)c2)c(-c2cn(C)c(=O)c3[nH]ccc23)c1` [Compound I-34]?
Answer: GI50 [1]: < 0.5 µM; GI50 (VCaP cells): < 0.5 µM; GI50 [2]: < 0.5 µM

Question: What does the source list for `CCS(=O)(=O)Nc1ccc(Oc2cccc(OC3CN(CC4CCN(c5ncc(C(=O)N[C@H]6C(C)(C)[C@H](Oc7ccc(C#N)c(Cl)c7)C6(C)C)cn5)CC4)C3)c2)c(-c2cn(C)c(=O)c3[nH]ccc23)c1` [Compound I-38]?
Answer: GI50 [1]: < 0.5 µM; GI50 (VCaP cells): < 0.5 µM; GI50 [2]: < 0.5 µM

Question: Which results are given for `CCS(=O)(=O)Nc1cnc(Oc2cccc(OCCOC3CCN(c4cnc(C(=O)N[C@H]5C(C)(C)[C@H](Oc6ccc(C#N)c(Cl)c6)C5(C)C)cn4)CC3)c2)c(-c2cn(C)c(=O)c3[nH]ccc23)c1` [Compound I-46]?
Answer: GI50 [1]: < 0.5 µM; GI50 (VCaP cells): < 0.5 µM; GI50 [2]: > 3 µM

Question: Which results are given for `Cn1cc(-c2cc(NS(C)(=O)=O)ccc2Oc2cccc(OCCOC3CCN(c4ncc(C(=O)N[C@H]5C(C)(C)[C@H](Oc6ccc(C#N)c(Cl)c6)C5(C)C)cn4)CC3)c2)c2cc[nH]c2c1=O` [Compound I-50, N-((1r, 3r)-3-(3-chloro-4-cyanophenoxy)-2,2,4,4-tetramethylcyclobutyl)-2-(4-(2-(3-(2-(6-methyl-7-oxo-6,7-dihydro-1H-pyrrolo[2,3-c]pyridin-4-yl)-4-(methylsulfonamido)phenoxy)phenoxy)ethoxy)piperidin-1-yl)pyrimidine-5-carboxamide]?
Answer: GI50 [1]: < 0.5 µM; GI50 (VCaP cells): < 0.5 µM; GI50 [2]: < 0.5 µM

Question: `Cn1cc(-c2cc(CS(C)(=O)=O)ccc2Oc2cccc(OCCOC3CCN(c4ncc(C(=O)N[C@H]5C(C)(C)[C@H](Oc6ccc(C#N)c(Cl)c6)C5(C)C)cn4)CC3)c2)c2cc[nH]c2c1=O` [Compound I-53, N-((1r, 3r)-3-(3-chloro-4-cyanophenoxy)-2,2,4,4-tetramethylcyclobutyl)-2-(4-(2-(3-(2-(6-methyl-7-oxo-6,7-dihydro-1H-pyrrolo[2,3-c]pyridin-4-yl)-4-((methylsulfonyl)methyl)phenoxy)phenoxy)ethoxy)piperidin-1-yl)pyrimidine-5-carboxamide] was tested. Which GI50 [1] did it give?
Answer: < 0.5 µM

Question: What about the GI50 (VCaP cells) of the same compound?
Answer: < 0.5 µM

Question: And the GI50 [2]?
Answer: < 0.5 µM

Question: With `CCS(=O)(=O)c1ccc(Oc2cccc(OCCOC3CCN(c4ncc(C(=O)N[C@H]5C(C)(C)[C@H](Oc6ccc(C#N)c(Cl)c6)C5(C)C)cn4)CC3)c2)c(-c2cn(C)c(=O)c3[nH]ccc23)c1` [Compound I-55, N-((1r, 3r)-3-(3-chloro-4-cyanophenoxy)-2,2,4,4-tetramethylcyclobutyl)-2-(4-(2-(3-(4-(ethylsulfonyl)-2-(6-methyl-7-oxo-6,7-dihydro-1H-pyrrolo[2,3-c]pyridin-4-yl)phenoxy)phenoxy)ethoxy)piperidin-1-yl)pyrimidine-5-carboxamide] as the compound, how does the GI50 [1] read?
Answer: < 0.5 µM

Question: What about the GI50 (VCaP cells) of the same compound?
Answer: < 0.5 µM

Question: And the GI50 [2]?
Answer: < 0.5 µM
